Source: US20240270821A1, “GIP/GLP1/GCG TRI-RECEPTOR AGONISTS AND USES THEREOF” (priority 2023, published 2024)
Like-named read-outs stand apart in the source and are kept apart here. Starred links: 1 amine or outer side, 2 acyl side, 3 side chain; linkers in the order of their positions; H or OH if unused. Non-standard residues stand in square brackets, D forms with d. Groups on a side chain read outwards from the residue. No end group written: not given here. *: point of attachment. C18 diacid = O=C(O)CCCCCCCCCCCCCCCCC(=O)*; γGlu = O=C(O)[C@H](CCC(=O)[*:2])N[*:1]; αMe4Pal = C[C@](N)(Cc1ccncc1)C(=O)O; αMeY = C[C@](N)(Cc1ccc(O)cc1)C(=O)O; 4Pal = N[C@@H](Cc1ccncc1)C(=O)O; αMeL = CC(C)C[C@](C)(N)C(=O)O; Orn = NCCC[C@H](N)C(=O)O; AEEA = NCCOCCOCC(=O)O; Aib = CC(C)(N)C(=O)O

Assays:
Format in all cases: cell-based
[1] = target: T1, hGIPR (Homo sapiens, UniProt P48546); assay: Functional cAMP activation in the presence of 0.1% casein (no HSA); settings: in the presence of 0.1% casein (no HSA); geometric mean; read-out: Relative cAMP EC50, hGIPR;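 also: intracellular cAMP rise after 30 min at 37 °C read by HTRF against a standard curve, scaled between buffer alone (0%) and top control ligand concentration (100%), four-parameter fit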
T1 sequence (P48546 22-466): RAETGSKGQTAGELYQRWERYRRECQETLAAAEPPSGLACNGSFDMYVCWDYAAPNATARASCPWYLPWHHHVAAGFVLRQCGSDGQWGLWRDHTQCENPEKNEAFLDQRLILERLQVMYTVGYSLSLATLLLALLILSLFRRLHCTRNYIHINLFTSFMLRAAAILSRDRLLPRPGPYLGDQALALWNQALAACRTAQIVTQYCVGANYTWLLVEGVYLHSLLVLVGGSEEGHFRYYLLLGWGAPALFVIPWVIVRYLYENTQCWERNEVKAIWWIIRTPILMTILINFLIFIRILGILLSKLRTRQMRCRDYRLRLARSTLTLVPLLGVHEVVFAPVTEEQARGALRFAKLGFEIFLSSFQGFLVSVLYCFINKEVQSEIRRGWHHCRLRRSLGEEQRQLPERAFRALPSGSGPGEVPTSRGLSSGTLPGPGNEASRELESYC

[2] = target: hGcgR (Homo sapiens, UniProt P47871); assay: as above; settings: in the presence of 0.1% casein (no HSA); geometric mean; read-out: Relative cAMP EC50, hGcgR;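 also: intracellular cAMP rise after 30 min at 37 °C, read by HTRF against a cAMP standard curve, scaled from buffer only (0%) to maximal control ligand response (100%)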
[3] = target: T1, hGIPR; assay: Functional cAMP activity in the presence of 1% HSA; settings: read-out: cAMP Rel EC50, hGIPR
[4] = target: T2, hGLP-1R (Homo sapiens, UniProt P43220); assay: Functional cAMP activation in the presence of 0.1% casein (no HSA); settings: in the presence of 0.1% casein (no HSA); geometric mean; read-out: Relative cAMP EC50, hGLP-1R;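 also: intracellular cAMP rise after 30 min at 37 °C read by HTRF, normalized between buffer only (0%) and maximal control ligand (100%), four-parameter variable-slope fit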
[5] = target: T2, hGLP-1R; assay: Functional cAMP activity in the presence of 1% HSA; settings: read-out: cAMP Rel EC50, hGLP-1R
[6] = target: human GcgR (Homo sapiens, UniProt P47871); assay: Functional cAMP activity in the presence of 1% HSA; settings: read-out: cAMP Rel EC50, hGcgR
[7] = HEK-293 clonal cell line, in the presence of 1% HSA, geometric mean of relative EC50

Sequence of human GcgR (P47871 26-477): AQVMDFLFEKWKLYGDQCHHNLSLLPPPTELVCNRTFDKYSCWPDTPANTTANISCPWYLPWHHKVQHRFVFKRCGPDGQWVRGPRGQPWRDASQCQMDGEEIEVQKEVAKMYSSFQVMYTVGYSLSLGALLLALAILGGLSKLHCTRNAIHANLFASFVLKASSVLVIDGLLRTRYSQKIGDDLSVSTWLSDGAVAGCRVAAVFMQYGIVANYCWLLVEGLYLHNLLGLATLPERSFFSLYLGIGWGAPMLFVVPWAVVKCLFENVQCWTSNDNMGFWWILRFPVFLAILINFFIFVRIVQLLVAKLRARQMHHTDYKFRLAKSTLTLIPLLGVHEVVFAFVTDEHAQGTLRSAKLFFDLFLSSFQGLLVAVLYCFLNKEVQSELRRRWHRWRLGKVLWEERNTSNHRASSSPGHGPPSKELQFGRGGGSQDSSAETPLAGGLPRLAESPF
Sequence of hGcgR (P47871 26-477): as above
T2 sequence (P43220 24-463): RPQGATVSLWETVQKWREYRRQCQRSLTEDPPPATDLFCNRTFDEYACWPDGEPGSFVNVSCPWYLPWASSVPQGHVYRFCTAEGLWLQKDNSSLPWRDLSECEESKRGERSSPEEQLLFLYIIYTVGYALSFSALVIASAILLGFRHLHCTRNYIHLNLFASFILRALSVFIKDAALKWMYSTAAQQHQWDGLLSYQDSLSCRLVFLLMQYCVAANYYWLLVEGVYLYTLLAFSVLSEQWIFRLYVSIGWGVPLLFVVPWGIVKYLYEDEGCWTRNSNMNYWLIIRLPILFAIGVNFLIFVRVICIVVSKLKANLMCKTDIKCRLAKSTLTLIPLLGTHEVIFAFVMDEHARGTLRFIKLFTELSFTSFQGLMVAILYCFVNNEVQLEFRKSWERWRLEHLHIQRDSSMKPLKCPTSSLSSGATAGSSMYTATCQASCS

| Substance | EC50 [1] [nM] | EC50 [2] [nM] | EC50 [3] [nM] | EC50 [4] [nM] | EC50 [5] [nM] | EC50 [6] [nM] | EC50 [3, 7] [nM] | EC50 [5, 7] [nM] | EC50 [6, 7] [nM] |
| --- | --- | --- | --- | --- | --- | --- | --- | --- | --- |
| H-Y[Aib]QGTFTSD[4Pal]SQ[αMeL]LD[Orn]K([AEEA-γGlu-C18 diacid])AQ[αMe4Pal]AFI[dE][αMeY]LIEGGPSSGAPPPSGSEE-NH2 [Example 1042] | 1.3 | 27.5 | 84.8 | 10.3 | 642 | 1890 | – | – | – |
| H-Y[Aib]QGTFTSD[4Pal]SQ[αMeL]LD[Orn]K([AEEA-γGlu-C18 diacid])AQ[αMe4Pal]QFIE[αMeY]LIA[Aib]GPSSGEPPPSGSEE-NH2 [Example 1100] | 0.0694 | 5.28 | 9.04 | 0.514 | 77.2 | 577 | – | – | – |
| H-Y[Aib]QGTFTSD[4Pal]SQ[αMeL]LD[Orn]K([AEEA-γGlu-C18 diacid])AQ[αMe4Pal]QFIE[αMeY]LIEGGPSSGAPPPSGS-NH2 [Example 857] | 0.441 | 6.21 | 36.1 | 0.433 | 87.3 | 1050 | – | – | – |
| H-Y[Aib]QGTFTSD[4Pal]SQ[αMeL]LD[Orn]K([AEEA-γGlu-C18 diacid])AQ[αMe4Pal]QFIE[αMeY]LIEGGPSSGAPPPSGSEE-NH2 [Example 1045] | 0.781 | 7.35 | 107 | 1.51 | 276 | 1540 | – | – | – |
| H-Y[Aib]QGTFTSD[4Pal]SQ[αMeL]LD[Orn]K([AEEA-γGlu-γGlu-C18 diacid])AQ[αMe4Pal]AFIEYLIE[dA]GPSSGEPPPSGS-NH2 [Example 1018] | 0.51 | 5.29 | 14.1 | 1.69 | 163 | 568 | – | – | – |
| H-Y[Aib]QGTFTSD[4Pal]SQ[αMeL]LD[Orn]K([Glu-γGlu-C18 diacid])AQ[αMe4Pal]AFIQ[αMeY]LIEGGPSSGAPPPSGSEEE-NH2 [Example 1077] | 0.23 | 18.8 | 27.8 | 1.48 | 408 | 3160 | – | – | – |
| H-Y[Aib]QGTFTSD[4Pal]SQ[αMeL]LD[Orn]K([dE-γGlu-C18 diacid])AQ[αMe4Pal]AFIE[αMeY]LIAGGPSSGAPPPSGSEE-NH2 [Example 1074] | 0.0745 | 22.8 | 8.49 | 0.794 | 101 | 1990 | – | – | – |
| H-Y[Aib]QGTFTSD[4Pal]SQ[αMeL]LD[Orn]K([dE-γGlu-C18 diacid])AQ[αMe4Pal]AFIE[αMeY]LIE[Aib]GPSSGEPPPSGSEE-NH2 [Example 1103] | 0.0723 | 11.1 | 19.5 | 1.06 | 183 | 1350 | – | – | – |
| H-Y[Aib]QGTFTSD[4Pal]SQ[αMeL]LD[Orn]K([dE-γGlu-C18 diacid])AQ[αMe4Pal]AFIE[αMeY]LLAGGPSSGAPPPSGSEEE-NH2 [Example 1082] | 0.099 | 12.3 | 12.3 | 4.13 | 677 | 1530 | – | – | – |
| H-Y[Aib]QGTFTSD[4Pal]SQ[αMeL]LD[Orn]K([dE-γGlu-C18 diacid])AQ[αMe4Pal]AFIQ[αMeY]LIA[Aib]GPSSGEPPPSGGGE-NH2 [Example 1130] | 0.0441 | 13.3 | 3.73 | 0.641 | 44.5 | 1240 | – | – | – |
| H-Y[Aib]QGTFTSD[4Pal]SQ[αMeL]LD[Orn]K([dE-γGlu-C18 diacid])AQ[αMe4Pal]QFIE[αMeY]LLAGGPSSGAPPPSGSEEE-NH2 [Example 1084] | 0.0975 | 11.5 | 17.2 | 10.3 | 761 | 1390 | – | – | – |
| H-Y[Aib]QGTFTSD[4Pal]SQ[αMeL]LD[Orn]K([dE-γGlu-C18 diacid])AQ[αMe4Pal]QFIQ[αMeY]LIE[Aib]GPSSGEPPPSGGGE-NH2 [Example 1129] | 0.048 | 6.11 | 4.16 | 0.501 | 56.6 | 796 | – | – | – |
| H-Y[Aib]QGTFTSD[4Pal]SQ[αMeL]LD[Orn]K([γGlu-γGlu-C18 diacid])AQ[Aib]AFIE[αMeY]LLEGGPSSGAPPPSGSEE-NH2 [Example 946] | 0.353 | 16.5 | 57.4 | 2.05 | 576 | 1950 | – | – | – |
| H-Y[Aib]QGTFTSD[4Pal]SQ[αMeL]LD[Orn]K([γGlu-γGlu-C18 diacid])AQ[αMe4Pal]AFIEYLIAGGPSSGEPPPSGS-NH2 [Example 1007] | 0.116 | 5.34 | 12 | 0.668 | 95.1 | 636 | – | – | – |
| H-Y[Aib]QGTFTSD[4Pal]SQ[αMeL]LD[Orn]K([γGlu-γGlu-C18 diacid])AQ[αMe4Pal]AFIEYLIAGGPSSGEPPPSGSE [Example 977] | 0.189 | 7.18 | 23 | 1.1 | 159 | 839 | – | – | – |
| H-Y[Aib]QGTFTSD[4Pal]SQ[αMeL]LD[Orn]K([γGlu-γGlu-C18 diacid])AQ[αMe4Pal]AFIEYLIAGGPSSGEPPPSGSE-NH2 [Example 1008] | 0.14 | 7.47 | 15.2 | 1.09 | 126 | 1010 | – | – | – |
| H-Y[Aib]QGTFTSD[4Pal]SQ[αMeL]LD[Orn]K([γGlu-γGlu-C18 diacid])AQ[αMe4Pal]AFIEYLIAGGPSSGEPPPSGTEEE-NH2 [Example 986] | 0.299 | 4.94 | – | 3.06 | – | – | 31.3 | 380 | 702 |
| H-Y[Aib]QGTFTSD[4Pal]SQ[αMeL]LD[Orn]K([γGlu-γGlu-C18 diacid])AQ[αMe4Pal]AFIEYLIA[Aib]GPSSGAPPPSGSEE-NH2 [Example 1091] | 0.0592 | 4.67 | 5.79 | 1.23 | 145 | 550 | – | – | – |
| H-Y[Aib]QGTFTSD[4Pal]SQ[αMeL]LD[Orn]K([γGlu-γGlu-C18 diacid])AQ[αMe4Pal]AFIEYLIA[Aib]GPSSGEPPPSGSEE-NH2 [Example 1092] | 0.0648 | 3.45 | 7.83 | 1.33 | 230 | 506 | – | – | – |
| H-Y[Aib]QGTFTSD[4Pal]SQ[αMeL]LD[Orn]K([γGlu-γGlu-C18 diacid])AQ[αMe4Pal]AFIEYLIE[Aib]GPSSGAPPPSGSEE-NH2 [Example 937] | 0.222 | 5.52 | 19.7 | 2.52 | 261 | 1160 | – | – | – |
| H-Y[Aib]QGTFTSD[4Pal]SQ[αMeL]LD[Orn]K([γGlu-γGlu-C18 diacid])AQ[αMe4Pal]AFIEYLIE[dA]GPSSGAPPPSGS-NH2 [Example 1017] | 0.228 | 6.47 | 28.3 | 1.16 | 118 | 649 | – | – | – |
| H-Y[Aib]QGTFTSD[4Pal]SQ[αMeL]LD[Orn]K([γGlu-γGlu-C18 diacid])AQ[αMe4Pal]AFIEYLIE[dA]GPSSGEPPPSGS-NH2 [Example 1019] | 0.169 | 4.36 | 21.3 | 1.33 | 161 | 579 | – | – | – |
| H-Y[Aib]QGTFTSD[4Pal]SQ[αMeL]LD[Orn]K([γGlu-γGlu-C18 diacid])AQ[αMe4Pal]AFIE[αMeY]LIA[Aib]GPSSGAPPPSGSEE-NH2 [Example 1107] | 0.0447 | 5.66 | 5.29 | 0.51 | 59 | 864 | – | – | – |
| H-Y[Aib]QGTFTSD[4Pal]SQ[αMeL]LD[Orn]K([γGlu-γGlu-C18 diacid])AQ[αMe4Pal]AFIE[αMeY]LIA[Aib]GPSSGEPPPSGSEE-NH2 [Example 1094] | 0.0515 | 5.84 | 5.86 | 0.623 | 64.4 | 831 | – | – | – |
| H-Y[Aib]QGTFTSD[4Pal]SQ[αMeL]LD[Orn]K([γGlu-γGlu-C18 diacid])AQ[αMe4Pal]AFIE[αMeY]LIEGGPSSGAPPPSGSEE-NH2 [Example 1043] | 0.282 | 17.1 | 44.9 | 1.52 | 268 | 2240 | – | – | – |
| H-Y[Aib]QGTFTSD[4Pal]SQ[αMeL]LD[Orn]K([γGlu-γGlu-C18 diacid])AQ[αMe4Pal]AFIE[αMeY]LIE[Aib]GPSSGEPPPSGSEE-NH2 [Example 1093] | 0.152 | 7.72 | 26.8 | 0.954 | 141 | 958 | – | – | – |
